A short description of the assay: Inhibition of VEGFR2-mediated angiogenesis in human HUVEC cells after 24 hrs by inverted photomicroscopic analysis.

This passage reports IC50 results from BindingDB's records for doi:10.1021/jm300576q (Georgetown University Medical Center, 2012).

Regarding `COC(=O)Nc1nc2ccc(C(=O)c3ccccc3)cc2[nH]1` [methyl (5-benzoyl-1H-benzimidazol-2-yl)carbamate], half-maximal inhibition (IC50) required 8.8 µM.
